Measured values published in patent publication US11447466B2, “Substituted indole compounds useful as inhibitors of TLR7/8/9” (BRISTOL-MYERS SQUIBB COMPANY, priority 2017, dated 2022).

How the values were obtained:
Assay type in all cases: cell-based
human TLR8 = target: T1, human TLR8 (Homo sapiens, UniProt Q9NR97); assay: TLR8 inhibition reporter assay (HEK-Blue SEAP reporter, R848 stimulation); conditions: HEK-Blue cells overexpressing human TLR8, SEAP reporter, R848 15.9 μM, 22 hour incubation
T1 construct: host or cells: HEK-Blue cells
T1 sequence (Q9NR97 27-1041): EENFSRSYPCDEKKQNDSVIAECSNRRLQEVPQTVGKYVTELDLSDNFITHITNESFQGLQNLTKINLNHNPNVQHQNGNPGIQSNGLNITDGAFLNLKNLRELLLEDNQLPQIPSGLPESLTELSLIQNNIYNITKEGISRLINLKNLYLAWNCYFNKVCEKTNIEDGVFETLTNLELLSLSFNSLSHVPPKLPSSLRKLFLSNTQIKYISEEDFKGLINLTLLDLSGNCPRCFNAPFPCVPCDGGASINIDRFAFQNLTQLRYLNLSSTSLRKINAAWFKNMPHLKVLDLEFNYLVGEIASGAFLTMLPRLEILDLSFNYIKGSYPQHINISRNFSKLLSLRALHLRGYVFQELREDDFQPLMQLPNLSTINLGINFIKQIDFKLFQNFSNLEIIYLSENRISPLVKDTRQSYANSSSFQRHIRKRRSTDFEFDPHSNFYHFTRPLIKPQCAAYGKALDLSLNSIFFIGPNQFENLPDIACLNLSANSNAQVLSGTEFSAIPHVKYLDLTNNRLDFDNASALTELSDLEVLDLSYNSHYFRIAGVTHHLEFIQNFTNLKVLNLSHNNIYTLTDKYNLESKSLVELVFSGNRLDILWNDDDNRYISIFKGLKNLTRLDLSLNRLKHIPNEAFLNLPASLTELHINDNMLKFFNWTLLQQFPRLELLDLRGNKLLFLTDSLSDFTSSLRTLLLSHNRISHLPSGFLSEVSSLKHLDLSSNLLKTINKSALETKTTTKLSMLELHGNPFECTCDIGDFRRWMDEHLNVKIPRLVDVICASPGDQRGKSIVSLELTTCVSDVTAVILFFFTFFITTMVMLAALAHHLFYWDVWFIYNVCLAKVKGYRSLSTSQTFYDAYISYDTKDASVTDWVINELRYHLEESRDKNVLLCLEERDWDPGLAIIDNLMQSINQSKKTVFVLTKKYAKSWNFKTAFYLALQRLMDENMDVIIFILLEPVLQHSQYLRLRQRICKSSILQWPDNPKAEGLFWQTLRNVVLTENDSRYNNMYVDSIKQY
How it was run: (§1)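 Compound treatment: 30 min, RT, 0.05 nM–50 μM final. Agonist: TLR7 gardiquimod 7.5 μM; TLR8 R848 15.9 μM; TLR9 ODN2006 5 nM. Incubation 22 h, 37 °C, 5% CO2. Readout SEAP, HEK-Blue Detection.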

human TLR9 = target: T2, human TLR9 (Homo sapiens, UniProt Q9NR96); assay: TLR9 inhibition reporter assay (HEK-Blue SEAP reporter, ODN2006 stimulation); conditions: HEK-Blue cells overexpressing human TLR9, SEAP reporter, ODN2006 5 nM, 22 hour incubation
T2 construct: host or cells: HEK-Blue cells
T2 sequence (Q9NR96 26-1032): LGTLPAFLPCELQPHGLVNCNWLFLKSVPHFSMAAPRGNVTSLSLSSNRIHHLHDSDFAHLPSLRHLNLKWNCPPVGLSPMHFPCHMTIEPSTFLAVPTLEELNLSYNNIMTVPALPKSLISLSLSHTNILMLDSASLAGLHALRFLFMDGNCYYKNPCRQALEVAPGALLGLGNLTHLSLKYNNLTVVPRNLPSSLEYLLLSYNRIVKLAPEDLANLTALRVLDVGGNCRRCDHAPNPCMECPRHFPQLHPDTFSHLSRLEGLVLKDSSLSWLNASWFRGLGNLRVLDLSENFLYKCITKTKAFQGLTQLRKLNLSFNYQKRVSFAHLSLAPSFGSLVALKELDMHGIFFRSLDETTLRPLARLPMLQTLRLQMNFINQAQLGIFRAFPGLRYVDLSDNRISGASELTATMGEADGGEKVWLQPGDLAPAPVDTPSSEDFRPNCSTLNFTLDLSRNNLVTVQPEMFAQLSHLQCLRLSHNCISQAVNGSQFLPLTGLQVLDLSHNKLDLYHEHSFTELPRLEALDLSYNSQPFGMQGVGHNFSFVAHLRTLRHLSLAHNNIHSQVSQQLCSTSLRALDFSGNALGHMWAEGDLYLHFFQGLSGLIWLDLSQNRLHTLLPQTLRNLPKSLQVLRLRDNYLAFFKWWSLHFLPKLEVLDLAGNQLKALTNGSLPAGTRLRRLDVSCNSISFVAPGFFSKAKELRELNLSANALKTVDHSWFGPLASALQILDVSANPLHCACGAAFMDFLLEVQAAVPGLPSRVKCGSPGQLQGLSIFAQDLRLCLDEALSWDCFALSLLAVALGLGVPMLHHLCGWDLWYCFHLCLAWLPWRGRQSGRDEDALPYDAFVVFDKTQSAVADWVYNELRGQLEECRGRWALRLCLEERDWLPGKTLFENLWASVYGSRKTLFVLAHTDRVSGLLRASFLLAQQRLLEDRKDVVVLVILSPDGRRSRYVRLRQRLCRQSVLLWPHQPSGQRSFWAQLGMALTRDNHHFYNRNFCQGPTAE
How it was run: as §1

human TLR7 = target: T3, human TLR7 (Homo sapiens, UniProt Q9NYK1); assay: TLR7 inhibition reporter assay (HEK-Blue SEAP reporter, gardiquimod stimulation); conditions: HEK-Blue cells overexpressing human TLR7, SEAP reporter, gardiquimod 7.5 μM, 22 hour incubation
T3 construct: host or cells: HEK-Blue cells
T3 sequence (Q9NYK1 27-1049): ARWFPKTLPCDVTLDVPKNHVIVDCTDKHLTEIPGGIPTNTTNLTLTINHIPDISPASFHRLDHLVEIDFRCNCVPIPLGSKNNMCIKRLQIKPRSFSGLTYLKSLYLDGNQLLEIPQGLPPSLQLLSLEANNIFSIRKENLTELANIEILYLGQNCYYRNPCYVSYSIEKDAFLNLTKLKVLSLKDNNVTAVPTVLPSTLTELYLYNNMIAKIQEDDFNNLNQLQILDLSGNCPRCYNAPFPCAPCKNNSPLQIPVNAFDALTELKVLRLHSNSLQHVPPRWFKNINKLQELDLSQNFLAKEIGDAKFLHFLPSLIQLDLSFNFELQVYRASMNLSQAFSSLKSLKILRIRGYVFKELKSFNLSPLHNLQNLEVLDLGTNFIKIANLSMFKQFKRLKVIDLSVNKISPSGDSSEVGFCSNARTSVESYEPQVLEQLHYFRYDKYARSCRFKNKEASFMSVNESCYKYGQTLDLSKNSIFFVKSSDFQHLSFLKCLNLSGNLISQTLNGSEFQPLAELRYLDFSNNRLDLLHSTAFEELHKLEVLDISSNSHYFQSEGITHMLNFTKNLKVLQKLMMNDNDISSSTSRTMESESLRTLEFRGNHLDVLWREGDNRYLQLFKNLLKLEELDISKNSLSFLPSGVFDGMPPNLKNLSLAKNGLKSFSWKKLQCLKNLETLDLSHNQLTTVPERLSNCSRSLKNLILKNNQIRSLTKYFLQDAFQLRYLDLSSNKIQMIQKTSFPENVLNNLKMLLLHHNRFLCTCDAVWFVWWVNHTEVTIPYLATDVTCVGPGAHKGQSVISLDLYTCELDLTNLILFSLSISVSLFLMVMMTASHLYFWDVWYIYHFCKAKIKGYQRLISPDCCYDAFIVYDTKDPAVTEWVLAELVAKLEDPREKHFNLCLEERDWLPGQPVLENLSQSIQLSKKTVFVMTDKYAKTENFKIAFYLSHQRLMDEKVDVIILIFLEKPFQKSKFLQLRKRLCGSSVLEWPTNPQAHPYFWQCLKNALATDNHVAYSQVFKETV
How it was run: as §1

Row | Compound | IC50 (human TLR8) [nM] | IC50 (human TLR9) [nM] | IC50 (human TLR7) [nM]
1 | Cc1cc(-c2[nH]c3ccc(C4CCN(C5CCC(C(F)(F)F)CC5)CC4)cc3c2C(C)C)cn(C)c1=O (stereo not drawn) [Example 230, 5-(3-isopropyl-5-(1-(4-(trifluoromethyl)cyclohexyl)piperidin-4-yl)-1H-indol-2-yl)-1,3-dimethylpyridin-2(1H)-one] | 23.1 | 5510 | 11.2
2 | Cc1cc(-c2[nH]c3ccc(C4CCN(C5CCC(C(F)(F)F)CC5)CC4)cc3c2C(C)C)cn(C)c1=O (stereo not drawn) [Example 231, 5-(3-isopropyl-5-(1-(4-(trifluoromethyl)cyclohexyl)piperidin-4-yl)-1H-indol-2-yl)-1,3-dimethylpyridin-2(1H)-one] | 22.3 | 3230 | 7
3 | Cc1nn(C)cc1CN1CCC(c2ccc3[nH]c(-c4cc(C)c(=O)n(C)c4)c(C(C)C)c3c2)CC1 [Example 232, 5-(5-(1-((1,3-dimethyl-1H-pyrazol-4-yl)methyl)piperidin-4-yl)-3-isopropyl-1H-indol-2-yl)-1,3-dimethylpyridin-2(1H)-one] | 1.1 | 6010 | 2.9
4 | CC(C)c1c(-c2cc(-c3cccnc3)c(=O)n(C)c2)[nH]c2ccc(C3CCN(C(C)C)CC3)cc12 [Example 235, 5-(3-isopropyl-5-(1-isopropylpiperidin-4-yl)-1H-indol-2-yl)-1-methyl-[3,3′-bipyridin]-2(1H)-one] | 5.2 | 1770 | 11
5 | CC(C)c1c(-c2cc(-c3cccnc3)c(=O)n(C)c2)[nH]c2ccc(C3CCN(CCO)CC3)cc12 [Example 236, 5-(5-(1-(2-hydroxyethyl)piperidin-4-yl)-3-isopropyl-1H-indol-2-yl)-1-methyl-[3,3′-bipyridin]-2(1H)-one] | 9.8 | 980 | 4.6
6 | Cc1c(-c2[nH]c3ccc(C4CCN(C(C)C)CC4)cc3c2C(C)C)cn(C)c(=O)c1-c1cccnc1 [Example 237, 5-(3-isopropyl-5-(1-isopropylpiperidin-4-yl)-1H-indol-2-yl)-1,4-dimethyl-[3,3′-bipyridin]-2(1H)-one] | 19.8 | 2100 | 181
7 | Cc1c(-c2[nH]c3ccc(C4CCN(C(C)C)CC4)cc3c2C(C)C)cn(C)c(=O)c1Cl [Example 238, 3-chloro-5-(3-isopropyl-5-(1-isopropylpiperidin-4-yl)-1H-indol-2-yl)-1,4-dimethylpyridin-2(1H)-one] | 11.8 | 8330 | 7.2

Results, then the compound that gave them:

Row | IC50 (human TLR8) [nM] | IC50 (human TLR9) [nM] | IC50 (human TLR7) [nM] | Compound
8 | 5.3 | 5810 | 5.4 | Cc1c(-c2[nH]c3ccc(C4CCN(C5CCOCC5)CC4)cc3c2C(C)C)cn(C)c(=O)c1Cl [Example 239, 3-chloro-5-(3-isopropyl-5-(1-(tetrahydro-2H-pyran-4-yl)piperidin-4-yl)-1H-indol-2-yl)-1,4-dimethylpyridin-2(1H)-one]
9 | 3.7 | 2590 | 1 | Cc1c(-c2[nH]c3ccc(C4CCN(C)CC4)cc3c2C(C)C)cn(C)c(=O)c1Cl [Example 240, 3-chloro-5-(3-isopropyl-5-(1-methylpiperidin-4-yl)-1H-indol-2-yl)-1,4-dimethylpyridin-2(1H)-one]
10 | 4.8 | 4870 | 8.3 | CC(=O)N1CCC(c2ccc3[nH]c(-c4cn(C)c(=O)c(Cl)c4C)c(C(C)C)c3c2)CC1 [Example 241, 5-(5-(1-acetylpiperidin-4-yl)-3-isopropyl-1H-indol-2-yl)-3-chloro-1,4-dimethylpyridin-2(1H)-one]
11 | 5.1 | 2680 | 3.2 | CCCN1CCC(c2ccc3[nH]c(-c4cn(C)c(=O)c(Cl)c4C)c(C(C)C)c3c2)CC1 [Example 242, 3-chloro-5-(3-isopropyl-5-(1-propylpiperidin-4-yl)-1H-indol-2-yl)-1,4-dimethylpyridin-2(1H)-one]
